Source: patent US20220041647A1, “ESTRA-1,3,5(10)-TRIENE COMPOUNDS CONDENSED IN POSITION 16(17) WITH A PYRAZOLE RING AS INHIBITORS OF 17-HSD1” (FORENDO PHARMA LTD, priority 2018, published 2022)

Columns and labels:
Format in all cases: biochemical
[1] = target: T1, recombinant human 17β-HSD1 (Homo sapiens, UniProt P14061); experiment: Inhibition of recombinant human 17β-HSD1 (estrone to estradiol conversion, HPLC/radioactivity); settings: compound 100 nM; 30 nM estrone, 1 mM NADPH, 30 min RT
T1 construct: made in house; host or cells: Sd9 (Sf9) insect cells, baculovirus (Bac to Bac Expression System)
T1 sequence (P14061 1-328): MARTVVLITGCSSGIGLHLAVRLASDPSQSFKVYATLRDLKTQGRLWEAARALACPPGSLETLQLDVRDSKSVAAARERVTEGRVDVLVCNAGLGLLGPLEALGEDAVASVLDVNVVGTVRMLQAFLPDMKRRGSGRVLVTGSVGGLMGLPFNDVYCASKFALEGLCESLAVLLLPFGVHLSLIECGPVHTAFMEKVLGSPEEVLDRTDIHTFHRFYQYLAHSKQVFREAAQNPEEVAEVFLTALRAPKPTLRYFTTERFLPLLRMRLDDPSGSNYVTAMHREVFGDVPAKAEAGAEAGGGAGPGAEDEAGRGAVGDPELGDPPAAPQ
Procedure: 17β-HSD1 production and isolation: Recombinant baculovirus was generated by the “Bac to Bac Expression System” (Invitrogen). Recombinant bacmid was transfected to Sd9 insect cells using “Cellfectin Reagent” (Invitrogen). 60 h later cells were harvested; the microsomal fraction was isolated as described by Puranen, T. J., Poutanen, M. H., Peltoketo, H. E., Vihko, P. T. and Vihko, R. K. (1994) Site-directed mutagenesis of the putative active site of human 17 β-hydroxysteroid dehydrogenase type 1. Biochem. J. 304: 289-293. Aliquots were stored frozen until determination of enzymatic activity.
Assay—Inhibition of recombinant human 17β-HSD1: Recombinant protein (1 μg/ml) was incubated in 20 mM KH2PO4 pH 7.4 with 30 nM estrone (including 800 000 cpm/ml of ^3H-estrone) and 1 mM NADPH for 30 min at RT, in the presence of the potential inhibitor at concentrations 1 μM or 0.1 μM. Inhibitor stock solutions were prepared in DMSO. Final concentration of DMSO was adjusted to 1% in all samples. The enzyme reaction was stopped by addition of 10% trichloroacetic acid (final concentration). Samples were centrifuged in a microtiter plate at 4000 rpm for 10 min. Supernatants were applied to reverse phase HPLC on a Waters Symmetry C18 column, equipped with a Waters Sentry Guard column. Isocratic HPLC runs were performed at RT at a flow rate of 1 ml/min in acetonitrile:water 48:52 as running solvent. Radioactivity was monitored in the eluate by a Scintillation Analyzer. Total radioactivity for estrone and estradiol were determined in each sample and percent conversion of estrone to estradiol was calculated according to the following formula:
% conversion=100×{(cpm estradiol in sample with inhibitor)/[(cpm estrone in sample with inhibitor)+(cpm estradiol in sample with inhibitor)]}/{[(cpm estradiol in sample without inhibitor)/[(cpm estrone in sample without inhibitor)+(cpm estradiol in sample without inhibitor)]}.
(§1) Percent inhibition was calculated followingly: % inhibition=100−% conversion.

[2] = target: T2, recombinant human 17β-HSD2 (Homo sapiens, UniProt P37059); experiment: Inhibition of recombinant human 17β-HSD2 (estradiol to estrone conversion, HPLC/radioactivity); settings: compound 1 μM; 50 nM estradiol, 1 mM NADH, 30 min RT
T2 construct: made in house; host or cells: Sd9 (Sf9) insect cells, baculovirus (Bac to Bac Expression System)
T2 sequence (P37059 1-387): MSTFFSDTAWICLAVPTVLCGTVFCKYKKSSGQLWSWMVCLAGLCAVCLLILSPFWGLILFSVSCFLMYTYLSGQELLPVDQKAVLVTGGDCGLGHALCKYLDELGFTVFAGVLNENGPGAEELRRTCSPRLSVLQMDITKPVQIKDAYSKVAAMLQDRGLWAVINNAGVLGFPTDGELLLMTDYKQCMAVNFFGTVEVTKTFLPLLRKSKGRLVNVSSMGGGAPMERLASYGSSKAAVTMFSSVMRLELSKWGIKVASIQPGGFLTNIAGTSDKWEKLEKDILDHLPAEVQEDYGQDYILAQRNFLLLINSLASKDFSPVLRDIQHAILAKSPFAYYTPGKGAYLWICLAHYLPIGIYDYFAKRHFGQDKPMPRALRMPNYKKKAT
Procedure: 17β-HSD2 production and isolation: Similarly to 173-HSD1 the Recombinant baculovirus was generated by the “Bac to Bac Expression System” (Invitrogen). Recombinant bacmid was transfected to Sd9 insect cells using “Cellfectin Reagent” (Invitrogen). 60 h later cells were harvested and supernatant were fractionated by the following protocol: • cells were dissolved into 40 ml of A-buffer (40 mM TRIS, pH8.0, 20% glycerol, 20 μM NAD, 0.4 mM PMSF, 150 mM NaCl, 0.5% dodecyl-β-maltoside+protease inhibitor cocktail) • cells were sonicated • lysate was incubated on ice for 15 min • lysate was centrifuged 5000 rpm 15 min, +4° C. • centrifugation of the supernatant 180 000 g 30 min, +4° C. • pellet was dissolved into 8 ml of A-buffer • not resuspended material was removed by centrifugation 5000 rpm 15 min, +4° C. • the clear supernatant was divided into 100 μl aliquots and were stored frozen until determination of enzymatic activity.
The amount of 173-HSD2 was analysed by immunoblotting and total protein concentration of each extract batch was determined.
Assay—Inhibition of recombinant human 17β-HSD2: Recombinant protein (4 μg/ml) was incubated in 20 mM KH2PO4 pH 8.5 with 50 nM estradiol (including 800 000 cpm/ml of ^3H-estradiol) and 1 mM NADH for 30 min at RT, in the presence of the potential inhibitor at concentrations 1 μM or 0.1 μM. Inhibitor stock solutions were prepared in DMSO. Final concentration of DMSO was adjusted to 1% in all samples. The enzyme reaction was stopped by addition of 10% trichloroacetic acid (final concentration). Samples were centrifuged in a microtiter plate at 4000 rpm for 10 min. Supernatants were applied to reverse phase HPLC on a Waters Symmetry C18 column, equipped with a Waters Sentry Guard column. Isocratic HPLC runs were performed at RT at a flow rate of1 ml/min in acetonitrile:water 48:52 as running solvent. Radioactivity was monitored in the eluate by a Scintillation Analyzer. Total radioactivity for estrone and estradiol were determined in each sample and percent conversion of estradiol to estrone was calculated according to the following formula:
% conversion=100×{(cpm estrone in sample with inhibitor)/[(cpm estradiol in sample with inhibitor)+(cpm estrone in sample with inhibitor)]}/{[(cpm estrone in sample without inhibitor)/[(cpm estradiol in sample without inhibitor)+(cpm estrone in sample without inhibitor)]}.
as §1

[3] = tested on: HSD1 enzyme that is expressed in rabbit placenta tissue; experiment: Inhibition of E1 to E2 conversion in rabbit placenta tissue homogenate; settings: compound 100 nM, 30 nM estrone, 1 mM β-NADPH, 30 min
Procedure: The assay is based on an enzymatic reaction where HSD1 enzyme that is expressed in rabbit placenta tissue converts its natural substance estrone (E1) to estradiol (E2) in the presence of a co-factor β-NADPH.
Homogenization of rabbit placenta tissue: Weight a piece of the frozen tissue into a Precellys ck28 bead tube. Add buffer solution (20 mM KH2PO4 with 1 mM EDTA, pH 7.4) in 1:2 ratio (e.g. 300 mg of tissue:600 μl reaction buffer solution). Insert the bead tubes to homogenizer and homogenize 2×30 s. 6000 rpm.
Centrifugated 5 min., 2600 rpm at +4° C. and collect supernatant. Aliquots of homogenate are stored in −80° C.
Assay—Inhibition of E1 to E2 conversion in rabbit placenta tissue: The reaction takes place in a buffer solution (20 mM KH2PO4 with 1 mM EDTA, pH 7,4), including appropriate amount of rabbit placenta homogenate, co-factor (1 mM β-NADPH), Substrate (30 nM estrone), labelled substrate as tracer (5 nM [^3H]-estrone), and the potential inhibitor at concentrations 1 μM or 0.1 μM. Inhibitor stock solutions were prepared in DMSO. Final concentration of DMSO was adjusted to 1% in all samples. During a 30-minute incubation part of the estrone is converted to estradiol. The reaction is stopped by lowering the pH to 1 with 10% trichloro acetic acid (TCA). The substrate and conversion products are analyzed by HPLC and a Scintillation counter analyzer. Total radioactivity for estrone and estradiol were determined in each sample and percent conversion of estrone to estradiol was calculated according to the following formula:
% conversion=100×{(cpm estradiol in sample with inhibitor)/[(cpm estrone in sample with inhibitor)+(cpm estradiol in sample with inhibitor)]}/{(cpm estradiol in sample without inhibitor)/[(cpm estrone in sample without inhibitor)+(cpm estradiol in sample without inhibitor)]}.
as §1

| SMILES | inhibition at 0.1 µM [1] | inhibition at 1 µM [2] | Rabbit placenta inhibition % @100 nM [3] |
| --- | --- | --- | --- |
| C[C@]12CCC3c4cccc(F)c4CCC3C1[C@H](CCC(=O)Nc1ccc(C#N)cn1)c1c[nH]nc12 (stereo partly drawn) [Compound 3, N-(5-Cyanopyridin-2-yl)-3-((8aS,12S)-3-fluoro-8a-methyl-1,2,6b,7,8,8a,10,12,12a,12b-decahydronaphtho[2′,1′:4,5]indeno[1,2-c]pyrazol-12-yl)propanamide] | 98% | 9% | 54% |
| COc1ccc(NC(=O)CC[C@@H]2c3c[nH]nc3[C@@]3(C)CCC4c5cccc(F)c5CCC4C23)nn1 (stereo partly drawn) [Compound 6, 3-((8aS,12S)-3-fluoro-8a-methyl-1,2,6b,7,8,8a,10,12,12a,12b-decahydronaphtho[2′,1′:4,5]indeno[1,2-c]pyrazol-12-yl)-N-(6-methoxypyridazin-3-yl)propanamide] | 93% | 8% | 86% |
| C[C@]12CCC3c4cccc(F)c4CCC3C1[C@H](CCC(=O)Nc1ccc(F)cn1)c1c[nH]nc12 (stereo partly drawn) [Compound 12, 3-((8aS,12S)-3-fluoro-8a-methyl-1,2,6b,7,8,8a,10,12,12a,12b-decahydronaphtho[2′,1′:4,5]indeno[1,2-c]pyrazol-12-yl)-N-(5-fluoropyridin-2-yl)propanamide] | 92% | 5% | 46% |
| Cc1ccnc(NC(=O)CC[C@@H]2c3c[nH]nc3[C@@]3(C)CCC4c5cccc(F)c5CCC4C23)c1 (stereo partly drawn) [Compound 27, 3-((8aS,12S)-3-fluoro-8a-methyl-1,2,6b,7,8,8a,10,12,12a,12b-decahydronaphtho[2′,1′:4,5]indeno[1,2-c]pyrazol-12-yl)-N-(4-methylpyridin-2-yl)propanamide] | 96% | 2% | 55% |
| CN(CC1CC1)C(=O)CC[C@@H]1c2c[nH]nc2[C@@]2(C)CCC3c4cccc(F)c4CCC3C12 (stereo partly drawn) [Compound 60, N-(cyclopropylmethyl)-3-((8aS,12S)-3-fluoro-8a-methyl-1,2,6b,7,8,8a,10,12,12a,12b-decahydronaphtho[2′,1′:4,5]indeno[1,2-c]pyrazol-12-yl)-N-methylpropanamide] | 93% | 9% | 16% |
| Cn1cc(NC(=O)CC[C@@H]2c3c[nH]nc3[C@@]3(C)CCC4c5cccc(F)c5CCC4C23)cn1 (stereo partly drawn) [Compound 63, 3-((8aS,12S)-3-fluoro-8a-methyl-1,2,6b,7,8,8a,10,12,12a,12b-decahydronaphtho[2′,1′:4,5]indeno[1,2-c]pyrazol-12-yl)-N-(1-methyl-1H-pyrazol-4-yl)propanamide] | 96% | 2% | 62% |
| CC(C)(C)NC(=O)CC[C@@H]1c2c[nH]nc2[C@@]2(C)CCC3c4cccc(F)c4CCC3C12 (stereo partly drawn) [Compound 72, N-(tert-butyl)-3-((8aS,12S)-3-fluoro-8a-methyl-1,2,6b,7,8,8a,10,12,12a,12b-decahydronaphtho[2′,1′:4,5]indeno[1,2-c]pyrazol-12-yl)propanamide] | 93% | 2% | – |
| C[C@]12CCC3c4ccc(F)cc4CCC3C1[C@H](CCC(=O)N1CCCC1)c1c[nH]nc12 (stereo partly drawn) [Compound 117, 3-((8aS,12S)-4-fluoro-8a-methyl-1,2,6b,7,8,8a,10,12,12a,12b-decahydronaphtho[2′,1′:4,S]indeno[1,2-c]pyrazol-12-yl)-1-(pyrrolidin-1-yl)propan-1-one] | 73% | 2% | – |
| C[C@]12CCC3c4ccccc4CCC3C1[C@H](CCC(=O)N1CCOCC1)c1c[nH]nc12 (stereo partly drawn) [Compound 249, 3-((8aS,12S)-8a-methyl-1,2,6b,7,8,8a,10,12,12a,12b-decahydronaphtho[2′,1′:4,5]indeno[1,2-c]pyrazol-12-yl)-1-morpholinopropan-1-one] | 59% | 7% | – |
| C[C@]12CCC3c4ccccc4CCC3C1[C@H](CCC(=O)Nc1ncc(F)cc1F)c1c[nH]nc12 (stereo partly drawn) [Compound 261, N-(3,5-difluoropyridin-2-yl)-3-((8aS,12S)-8a-methyl-1,2,6b,7,8,8a,10,12,12a,12b-decahydronaphtho[2′,1′:4,5]indeno[1,2-c]pyrazol-12-yl)propanamide] | 50% | 9% | – |
| C[C@]12CCC3c4ccccc4CCC3C1[C@H](CCC(=O)Nc1ncccc1F)c1c[nH]nc12 (stereo partly drawn) [Compound 264, N-(3-fluoropyridin-2-yl)-3-((8aS,12S)-8a-methyl-1,2,6b,7,8,8a,10,12,12a,12b-decahydronaphtho[2′,1′:4,5]indeno[1,2-c]pyrazol-12-yl)propanamide] | 54% | 4% | – |
